Like-named read-outs stand apart in the source and are kept apart here.

The subject of one data set is SW480 cells xenograft. Particulars: for decrease of size and weight of tumors: 16 days, versus vehicle. On the procedure: All animal experiments were performed in accordance with the Guide for the Care and Use of Laboratory Animals of Tongji Medical College, Huazhong University of Science and Technology and approved by the Ethics Committee. CB-17/ SCID mice (male, 4 weeks old) were purchased from Beijing HFK Bioscience CO., LTD (Beijing, China). SW480 cells were inoculated subcutaneously (3 × 10^6 cells) into the left flank of each mouse. […] The dose volume was 0.1 mL/10 g body weight, and the weights of mice were recorded every day. Meanwhile, the tumor volumes were measured with vernier calipers and calculated by the following formula: (A × B^2)/2, where A was length and B was width of the two-dimension tumor. After animals were sacrificed, tumor weights were measured. The inhibition ratio (%) was calculated using the following equation: I% = 100% × [Wtumor (vehicle) − Wtumor (treated)]/Wtumor (vehicle)

The target in another data set is T1, HK2 (Homo sapiens, UniProt P52789).
T1 construct: made in house; host or cells: E. coli BL21 (DE3)
T1 sequence (P52789 1-917): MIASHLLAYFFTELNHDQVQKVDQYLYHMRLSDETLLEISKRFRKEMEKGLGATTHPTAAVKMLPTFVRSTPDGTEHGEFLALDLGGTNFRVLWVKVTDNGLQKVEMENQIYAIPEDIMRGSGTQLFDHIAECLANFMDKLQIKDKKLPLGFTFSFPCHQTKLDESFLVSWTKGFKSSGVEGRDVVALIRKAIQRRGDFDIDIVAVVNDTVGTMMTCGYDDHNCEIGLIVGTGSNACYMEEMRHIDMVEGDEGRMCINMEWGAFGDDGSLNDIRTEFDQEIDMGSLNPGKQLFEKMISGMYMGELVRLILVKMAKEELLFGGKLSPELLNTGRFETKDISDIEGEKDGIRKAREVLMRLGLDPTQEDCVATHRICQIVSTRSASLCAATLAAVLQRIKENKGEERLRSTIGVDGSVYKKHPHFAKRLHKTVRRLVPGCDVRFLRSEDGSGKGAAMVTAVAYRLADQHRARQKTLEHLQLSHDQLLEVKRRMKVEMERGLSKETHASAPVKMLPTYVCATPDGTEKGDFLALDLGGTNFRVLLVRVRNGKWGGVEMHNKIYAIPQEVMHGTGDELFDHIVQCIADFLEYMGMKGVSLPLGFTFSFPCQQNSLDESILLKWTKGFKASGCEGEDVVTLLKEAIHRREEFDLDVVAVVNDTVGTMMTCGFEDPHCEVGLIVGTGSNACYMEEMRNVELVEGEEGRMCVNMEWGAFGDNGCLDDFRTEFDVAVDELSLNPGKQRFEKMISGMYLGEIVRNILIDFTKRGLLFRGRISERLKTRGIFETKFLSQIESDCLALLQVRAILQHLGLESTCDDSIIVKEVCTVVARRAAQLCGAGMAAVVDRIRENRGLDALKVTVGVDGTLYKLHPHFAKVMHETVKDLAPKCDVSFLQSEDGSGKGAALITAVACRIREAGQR
As to the kind of experiment: In vitro enzyme inhibition assay (G6P-DH coupled, NADH 340 nm). It is filed as biochemical. The settings on record: for Vmax: Lineweaver-Burk.

Consider `NC(CO)C(=O)NNCc1ccc(O)c(O)c1O` (centres unmarked) [Benz, Benserazide], for which the entries for the “decrease of size and weight of tumors” value in the data set on SW480 cells xenograft (300 mg/Kg per day i.p.) and in the data set with SW480 cells xenograft (600 mg/Kg per day i.p.) were 30.1% and 60.3%, respectively. The toxicity in mice result in the data set with SW480 cells xenograft (mouse, in vivo) is reported as “no toxicity shown”. Further, in the data set on SW480 cells xenograft (tumor-bearing mice, daily i.p. 16 days), the “body weight and histomorphology” value was “no remarkable loss of body weight and change of histomorphology”. Moreover, the values for the Vmax on HK2 (Benz 5 μM), on HK2 (Benz 10 μM) and on HK2 (Benz 20 μM) were 0.037 OD/min, 0.029 OD/min and 0.018 OD/min, respectively. Moreover, the mechanism of inhibition entry at HK2 (versus glucose) is “combined mechanism of both competitive and noncompetitive binding”.
